From US20090227470A1, “SELECTION OF BIOCATALYSTS FOR CHEMICAL SYNTHESIS” (priority 2005, published 2009)
“And” between values parts separate entries of the source, which are not always exact repeats. Identical values can stand only once. Like-named read-outs stand apart in the source and are kept apart here.

What was measured:
[1] = test system: DH10B-pVSF2-lacZ/pCom10-XylC (benzaldehyde dehydrogenase XylC from Pseudomonas putida); assay: Plate-based assay for β-galactosidase activity, biocat-reporter strain with XylC substrates; settings: plates with chloramphenicol, kanamycin, X-Gal; decane vapor to induce XylC
Description: Cells were plated and grown as above, under decane vapor, followed by incubation at 4° C. and testing for blue colony color as above.
Strain DH10B-pVSF2-lacZ was transformed with pCom10-XylC, streaked on plates containing chloramphenicol, kanamycin, X-Gal and varying concentrations of benzaldehyde or 2-hydroxybenzaldehyde, and grown exposed to decane vapor to induce XylC. Strain DH10B-pVSF2-lacZ, carrying an empty pCom10 vector served as control.

[2] = test system: DH10B-pVSF2-tet^r/pCom10-XylC (benzaldehyde dehydrogenase XylC from Pseudomonas putida); assay: Plate-based assay for tetracycline resistance, biocat-selector strain with XylC substrates; format: cell-based, Escherichia coli; settings: for EC50: Escherichia coli, read-out: substrate concentration required for half-maximal colony diameter, cells containing XylC, selective plates, estimated from inverse plots of FIG. 4
Description: Plasmid pCom10-XylC was re-introduced into DH10B-pVSF2-tet^r to produce the desired biocat-selector strain DH10B-pVSF2-tet^r/pCom10-XylC. This strain grew on tetracycline containing selective plates only after addition of benzaldehyde or 2-hydroxybenzaldehyde.

[3] = test system: DH10B-pVSF2-lacZ (NahR mutant, salicylate promoter Psal fused to lacZa); settings: plates with chloramphenicol and X-Gal, 36 h at 30° C.
Description: E. coli DH10B cells harbouring reporter plasmid pVSF2-lacZ were streaked on the plates from a liquid culture that had been grown at 30° C. to an OD600 of 0.1. Cells were grown for 36 h at 30° C. followed by incubation at 4° C. for 24 h after which blue colony color formation was evaluated visually.

NahR variant = NahR variant (Pseudomonas putida, UniProt P10183, N169D); settings: reported by de Lorenzo and coworkers (Cebolla et al., 1997); cited from earlier work
[4] = test system: DH10B-pVSF2-tet^r (NahR mutant, Psal fused to tetA)
Description: (§1) Each plate assay was conducted in triplicate and growth was determined by measuring the colony diameter of 10 solitary colonies for each plate.
(§2) We compared the sensitivity of the selector host for substrates and products by plotting the data of FIGS. 3 and 4 as inverse plots of 1/[colony diameter] vs 1/[compound] and estimating the concentration required for half maximal colony size.

E. coli cell membranes = assay: Passive diffusion across the cell envelope; format: in vitro ADME; settings: for diffusion rate across E. coli cell membranes: estimated from studies of toluene oxidation by E. coli hosts containing xylMA
Description: This can be considered to be due to differences in the transport of benzaldehyde and benzoate through the E. coli cell envelope. Such transport is believed to involve only passive diffusion^21,22. […].
Thus, substrate influx and product efflux, though different, are quite rapid. […]

[5] = test system: DH10B-pVSF2-tet^r (NahR mutant, Psal fused to tetA); assay: microbe, parasite or virus in culture; settings: Escherichia coli, read-out: concentration required for half maximal colony size (colony diameter 50% of maximum), product added extracellularly, selective plates; estimated from inverse plots of FIG. 3
Description: as §1, §2

Sequence of NahR variant (P10183 whole entry N169D, the tested form may be a part): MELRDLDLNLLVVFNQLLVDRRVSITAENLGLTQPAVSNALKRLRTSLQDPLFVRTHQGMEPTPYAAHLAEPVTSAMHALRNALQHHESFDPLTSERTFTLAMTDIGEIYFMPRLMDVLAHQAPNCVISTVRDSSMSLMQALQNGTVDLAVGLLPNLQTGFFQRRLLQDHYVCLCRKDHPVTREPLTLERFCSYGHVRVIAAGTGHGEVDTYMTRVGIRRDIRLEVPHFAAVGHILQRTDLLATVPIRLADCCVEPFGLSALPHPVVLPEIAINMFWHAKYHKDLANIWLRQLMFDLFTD

With O=Cc1ccccc1O [2-hydroxybenzaldehyde] the “substrate concentration above which blue colonies were formed” value [1] was “above 25 μM” and the EC50 [2] was roughly 0.3 µM.

For O=C(O)c1ccccc1O [2-hydroxybenzoate], the “concentration above which blue colonies were detected” value [3] is given as “higher than 10 μM”, the “saturating concentration for blue colony formation” value [3] is given as roughly 100 µM and the “affinity of the NahR chemosensor, times greater than for benzoate” value (NahR variant) is given as 10. The “fold more effective than the parent compound in triggering tetracycline resistance” value ([4]; 2-hydroxy substituted vs unsubstituted compound) was 15-20, the EC50 ([4]; read-out: concentration required for half maximal colony size (colony diameter 50% of maximum), product added extracellularly, selective plates, estimated from inverse plots of FIG. 3) was ~20 µM and 20 µM and the “minimum concentration at which colonies were formed” value ([4]; selective media with tetracycline) was 10 µM. For the same compound, the “concentration at which smaller and also fewer colonies were observed” value ([4]; selective plates with tetracycline) was 10 µM.

For O=Cc1ccccc1 [benzaldehyde], the “substrate concentration above which blue colonies were formed” value [1] was “above 50 μM”, the EC50 [2] was roughly 6 µM and the “concentration giving homogeneous growth” value ([2]; host with higher tetracycline tolerance, selective conditions) was roughly 100 µM. For the same compound, the “time for intracellular and extracellular concentrations to equilibrate” value (E. coli cell membranes) was “a few seconds” and the “diffusion rate across E. coli cell membranes” value (E. coli cell membranes) was “exceed 180 μmol/min/g cell dry mass”.

With O=C(O)c1ccccc1 [benzoate] the “time for intracellular and extracellular concentrations to equilibrate” value (E. coli cell membranes) was “one minute”, the “diffusion rate across E. coli cell membranes” value (E. coli cell membranes) was greater than 10 μmol/min/g cell dry mass and the EC50 [5] was roughly 400 µM.
